US20100261711A1, “SELECTIVE ANTICONVULSANT AGENTS AND THEIR USES” (WiSys Technology Foundation, priority 2009, published 2010)
Where two headings read alike, the source gives them in different places. Marks after values point to notes of the source that are not given here.

How the values were obtained:
[1] = test system: 6 Hz psychomotor seizure; experiment: Minimal clonic seizure (6 Hz) test; type: in vivo; conditions: Mice IP; for ED50: Mus musculus, ip
From the text: Like the maximal electroshock (MES) test, the minimal clonic seizure (6 Hz) test is used to assess a compound's efficacy against electrically-induced seizures but uses a lower frequency (6 Hz) and longer duration of stimulation (3 s). Test compounds are pre-administered to mice via ip injection. […] Untreated mice will display seizures characterized by a minimal clonic phase followed by stereotyped, automatistic behaviors described originally as being similar to the aura of human subjects with partial seizures. Animals not displaying this behavior are considered protected (Table 10).

[2] = test system: Metrazol-induced clonic seizures; conditions: Rat PO; from Antiepileptic Drugs, 5th ed., Levy et al., 2002; cited from earlier work
[3] = test system: MES-induced seizures; conditions: Mice IP; from Antiepileptic Drugs, 5th ed., Levy et al., 2002; cited from earlier work
[4] = test system: Metrazol-induced clonic seizures; conditions: Mice IP; from Antiepileptic Drugs, 5th ed., Levy et al., 2002; cited from earlier work
[5] = test system: minimal muscular or neurological impairment; conditions: Mice IP; from Antiepileptic Drugs, 5th ed., Levy et al., 2002; cited from earlier work
[6] = test system: minimal motor deficit (ataxia, abnormal gait); conditions: Rat PO; from Antiepileptic Drugs, 5th ed., Levy et al., 2002; cited from earlier work
[7] = test system: MES-induced seizures; conditions: Rat PO; from Antiepileptic Drugs, 5th ed., Levy et al., 2002; cited from earlier work
[8] = test system: MES-induced seizures; experiment: Maximal electroshock test (MES), mice; type: in vivo
Procedure: (§1) The benzodiazepine derivative compounds selective for GABAa receptor subunits were tested for the ability to suppress seizures in several standard rat and mouse models of epilepsy. […] The standard models incorporated into anticonvulsant screening include the maximal electroshock test (MES), the subcutaneous Metrazol test (scMet), and evaluations of toxicity (TOX). The data for each condition is presented as a ratio of either the number of animals protected or toxic (loss of locomotor activity) over the number of animals tested at a given time point and dose.
(§2) The MES is a model for generalized tonic-clonic seizures and provides an indication of a compound's ability to prevent seizure spread when all neuronal circuits in the brain are maximally active. These seizures are highly reproducible and are electrophysiologically consistent with human seizures. For all tests based on MES convulsions, 60 Hz of alternating current (50 mA in mice, 150 in rats) is delivered for by corneal electrodes which have been primed with an electrolyte solution containing an anesthetic agent (0.5% tetracaine HCL). For Test 1, mice are tested at various intervals following doses of 30, 100 and 300 mg/kg of test compound given by ip injection of a volume of 0.01 mL/g. In Test 2, rats are tested after a dose of 30 mg/kg (po) in a volume of 0.04 mL/g. Test 8 uses varying doses administered via i.p. injection, again in a volume of 0.04 ml/g. […] In Antiepileptic Drugs, Levy, R. H. M., Meldrum, B. S., Eds.; Raven Press: New York, pp 99-110, 1995b.).

[9] = test system: kindled motor seizure; experiment: Hippocampus kindling screen; type: in vivo; conditions: Rats IP, 3 mg/kg after 4 h
From the text: The hippocampus kindling screen is a useful adjunct to the traditional MES and scMet tests for identification of a substance potential utility for treating complex partial seizures. […] No toxic effects were observed as indicated by the lack of motor impairment on the rats tested.

[10] = test system: minimal muscular or neurological impairment; experiment: Toxicity (TOX), rotorod procedure, mice; type: in vivo
Procedure: as §1
(§3) To assess a compound's undesirable side effects (toxicity), animals are monitored for overt signs of impaired neurological or muscular function. […] When a mouse is placed on a rod that rotates at a speed of 6 rpm, the animal can maintain its equilibrium for long periods of time. The animal is considered toxic if it falls off this rotating rod three times during a 1-min period. In rats, minimal motor deficit is indicated by ataxia, which is manifested by an abnormal, uncoordinated gait. Rats used for evaluating toxicity are examined before the test drug is administered, since individual animals may have peculiarities in gait, equilibrium, placing response, etc., which might be attributed erroneously to the test substance.

[11] = Toxicity (TOX), minimal motor deficit, rats; type: in vivo; conditions: in vivo; Rat IP
Procedure: as §1, §3

[12] = test system: minimal motor deficit (ataxia, abnormal gait); experiment: Toxicity (TOX), minimal motor deficit, rats; type: in vivo; conditions: Rat PO; for Tox, animals toxic/tested: 50 mg/kg
Procedure: as §1, §3

[13] = test system: Metrazol-induced clonic seizures; experiment: Subcutaneous Metrazol test (scMet), mice; type: in vivo
Procedure: as §1
(§4) Subcutaneous injection of the convulsant Metrazol produces clonic seizures in laboratory animals. […] Animals are pretreated with various doses of the test compound (in a similar manner to the MES test, although a dose of 50 mg/kg (po) is the standard for Test 2 scMet). At the previously determined TPE of the test compound, the dose of Metrazol which will induce convulsions in 97% of animals (CD97: 85 mg/kg mice) is injected into a loose fold of skin in the midline of the neck. […] An episode of clonic spasms, approximately 3-5 seconds, of the fore and/or hindlimbs, jaws, or vibrissae is taken as the endpoint.

[14] = test system: Metrazol-induced clonic seizures; experiment: Subcutaneous Metrazol test (scMet), rats; type: in vivo
Procedure: as §1, §4

[15] = test system: MES-induced seizures; experiment: Maximal electroshock test (MES), rats; type: in vivo; conditions: Rat PO; for MES, animals protected/tested: 30 mg/kg
Procedure: as §1, §2

[16] = Toxicity (TOX), rotorod procedure, mice; type: in vivo; conditions: mouse, in vivo; IP route in mice (footnote of Table 10); read-out: TD50
Procedure: as §1, §3

[17] = target: GABAA/α5 receptors (Homo sapiens, UniProt P18507+P31644); conditions: Huang et al., J. Med. Chem. 2000, 43, 71-95; cited from earlier work
[18] = target: GABAA/α3 (Homo sapiens, UniProt P18507+P34903); conditions: Huang et al., J. Med. Chem. 2000, 43, 71-95; cited from earlier work
[19] = target: GABAA/α1 receptors (Homo sapiens, UniProt P14867+P18507); conditions: Huang et al., J. Med. Chem. 2000, 43, 71-95; cited from earlier work
[20] = target: T1, GABAA/α6 (α6β3γ2 GABAA receptors) (Homo sapiens, UniProt P18507+Q16445); experiment: Competitive binding assay, [3H]flunitrazepam
T1 construct: expressed in transfected cells
Procedure: (§5) The GABAA subunit selectivity of several compounds prepared as described above were determined using competitive binding assays. […] Membranes were harvested with a Brandel cell harvester followed by three ice-cold washes onto polyethyleneimine-pretreated (0.3%) Whatman GF/C filters. Filters were dried overnight and then soaked in Ecoscint, a liquid scintillation cocktail (National Diagnostics; Atlanta, Ga.). Bound radioactivity was quantified by liquid scintillation counting. Membrane protein concentrations were determined using an assay kit from Bio-Rad (Hercules, Calif.) with bovine serum albumin as the standard.

[21] = target: T2, GABAA/α3 (α3β3γ2 GABAA receptors) (Homo sapiens, UniProt P18507+P34903); experiment: Competitive binding assay, [3H]flunitrazepam; conditions: Binding Affinity at GABAA/α3, αxβ3γ2, [3H]flunitrazepam competition
T2 construct: expressed in transfected cells
Procedure: as §5

[22] = target: T3, GABAA/α4 (α4β3γ2 GABAA receptors) (Homo sapiens, UniProt P18507+P48169); experiment: Competitive binding assay, [3H]flunitrazepam
T3 construct: expressed in transfected cells
Procedure: as §5

[23] = target: T4, GABAA/α5 (α5β3γ2 GABAA receptors) (Homo sapiens, UniProt P18507+P31644); experiment: Competitive binding assay, [3H]flunitrazepam; conditions: Binding Affinity at GABAA/α5, αxβ3γ2, [3H]flunitrazepam competition
T4 construct: expressed in transfected cells
Procedure: as §5

[24] = target: T5, GABAA/α2 (α2β3γ2 GABAA receptors) (Homo sapiens, UniProt P18507+P47869); experiment: Competitive binding assay, [3H]flunitrazepam; conditions: αxβ3γ2, [3H]flunitrazepam competition; read-out: Binding Affinity at GABAA/α2
T5 construct: expressed in transfected cells
Procedure: as §5

[25] = target: T6, GABAA/α1 (α1β3γ2 GABAA receptors) (Homo sapiens, UniProt P14867+P18507); experiment: Competitive binding assay, [3H]flunitrazepam; conditions: αxβ3γ2, [3H]flunitrazepam competition; read-out: Binding Affinity at GABAA/α1
T6 construct: expressed in transfected cells
Procedure: as §5

[26] = target: GABAA/α2 (Homo sapiens, UniProt P18507+P47869); conditions: Huang et al., J. Med. Chem. 2000, 43, 71-95; cited from earlier work
[27] = Mice, 50 mg/kg PO (Mice IP), 0.5 hr
[28] = Mice, 50 mg/kg PO (Mice IP), 4.0 hr
[29] = 32 mA, read-out: ED50 32 mA (6 Hz test)

## O=C1CN=C(c2ccccc2Cl)c2cc([N+](=O)[O-])ccc2N1 [Clonazepan]
[1]; 32 mA
  ED50 32 mA (6 Hz test): 0.04 mg/kg
[2]
  ED50 scMet: 0.61 mg/kg
[3]
  ED50 MES: 25.6 mg/kg
[4]
  ED50 scMet: 0.02 mg/kg
[5]
  TD50 TOX: 0.26 mg/kg
[6]
  TD50 TOX: 2.38 mg/kg
[7]
  ED50 MES: 7.86 mg/kg

## C#Cc1ccc2c(c1)C(c1ccccc1Cl)=NCc1nnc(C)n1-2 [XLi-JY-DMH (23), 8-Acetyleno-5-(2′-chlorophenyl)-1-methyl-4H-s-triazolo-[4,3-a]-1,4-benzodiazepine]
[8]; Mice IP, 100 mg/kg, 0.5 hr
  MES, animals protected/tested: 3/3
[8]; Mice IP, 100 mg/kg, 4.0 hr
  MES, animals protected/tested: 3/3
[8]; [27]
  MES, animals protected/tested: 0/4
[8]; [28]
  MES, animals protected/tested: 0/4
[8]; Mus musculus, Mice IP
  ED50: > 6 mg/kg
[1]; [29]
  ED50: 0.17 mg/kg
[1]; 44 mA, read-out: ED50 44 mA (6 Hz test)
  ED50: 0.4 mg/kg
[9]
  Tox, animals toxic/tested: 0/2^c
[9]; pre-drug 29-41
  Afterdischarge Duration, Drug (Low-High): 29- s
[10]; Mice IP, 100 mg/kg, 0.5 hr
  TOX (Rotorod Test), animals toxic/tested: 6/8
[10]; Mice IP, 100 mg/kg, 4.0 hr
  TOX (Rotorod Test), animals toxic/tested: 2/4
[10]; Mice IP, rotorod
  TD50 TOX: 2.875 mg/kg
[10]; [27]
  TOX (Rotorod Test), animals toxic/tested: 0/4
[10]; [28]
  TOX (Rotorod Test), animals toxic/tested: 0/4
[11]
  TD50: 2.08 mg/kg
[12]; 0.5 h
  Tox, animals toxic/tested: 0/4
[12]; 1.0 h
  Tox, animals toxic/tested: 0/4
[12]; 2.0 h
  Tox, animals toxic/tested: 0/4
[12]; 4.0 h
  Tox, animals toxic/tested: 0/4
[12]; […]
  Tox, animals toxic/tested: 0/4
[12]; abnormal gait
  TD50 TOX: 166.25 mg/kg
[13]; Mice IP, 100 mg/kg, 0.5 hr
  mice protected against scMet induced seizures: 100%
  scMet, animals protected/tested: 1/1
[13]; Mice IP, 100 mg/kg, 4.0 hr
  scMet, animals protected/tested: 1/1
[13]; [27]
  scMet, animals protected/tested: 3/4
[13]; [28]
  scMet, animals protected/tested: 2/4
[13]; Mus musculus, Mice IP
  ED50: 1.03 mg/kg
[14]; Rat IP
  ED50: 4.2 mg/kg
[14]; Rat PO
  ED50: 1.58 mg/kg
[14]; Rat PO, 15 mg/kg, 0.5 h
  scMet, animals protected/tested: 3/4^c
[14]; Rat PO, 15 mg/kg, 1.0 h
  scMet, animals protected/tested: 2/4^c
[14]; Rat PO, 15 mg/kg, 2.0 h
  scMet, animals protected/tested: 4/4^c
[14]; Rat PO, 15 mg/kg, 4.0 h
  scMet, animals protected/tested: 2/4^c
[14]; Rat PO, 15 mg/kg, […]
  scMet, animals protected/tested: 3/4^c
[14]; Rat PO, 50 mg/kg, 0.5 h
  scMet, animals protected/tested: 4/4
[14]; Rat PO, 50 mg/kg, 1.0 h
  scMet, animals protected/tested: 4/4
[14]; Rat PO, 50 mg/kg, 2.0 h
  scMet, animals protected/tested: 4/4
[14]; Rat PO, 50 mg/kg, 4.0 h
  scMet, animals protected/tested: 3/4
[14]; Rat PO, 50 mg/kg, […]
  scMet, animals protected/tested: 4/4
[15]
  ED50: > 150 mg/kg
[15]; 0.5 h
  MES, animals protected/tested: 0/4
[15]; 1.0 h
  MES, animals protected/tested: 0/4
[15]; 2.0 h
  MES, animals protected/tested: 0/4
[15]; 4.0 h
  MES, animals protected/tested: 0/4
[15]; […]
  MES, animals protected/tested: 0/4

## NC(=O)N1c2ccccc2C=Cc2ccccc21 [Carbamazepine]
[1]; [29]
  ED50: > 40 mg/kg
[16]
  TD50: 41 mg/kg
[2]
  ED50 scMet: >250 mg/kg
[3]
  ED50 MES: 7.81 mg/kg
[4]
  ED50 scMet: >50 mg/kg
[7]
  ED50 MES: 5.35 mg/kg

## C#Cc1ccc2c(c1)C(c1ccccc1)=NCC(=O)N2C [QH-II-066, 1-Methyl-7-acetyleno-5-phenyl-1,3-dihydro-benzo[e]-1,4-diazepin-2-one]
[17]
  Ki: < 0.01 µM
[18]
  Ki: < 0.05 µM
[19]
  Ki: > 0.07 µM
[20]
  Ki: > 1 µM
[21]
  Ki: 0.0474 µM
[22]
  Ki: > 1 µM
[23]
  Ki: 0.0068 µM
[24]
  Ki: 0.0421 µM
[25]
  Ki: 0.0763 µM
[26]
  Ki: < 0.05 µM

## O=C1NC(=O)C(c2ccccc2)(c2ccccc2)N1 [Phenytoin]
[1]; [29]
  ED50: > 40 mg/kg
[16]
  TD50: 51 mg/kg
[2]
  ED50 scMet: >500 mg/kg
[3]
  ED50 MES: 5.64 mg/kg
[4]
  ED50 scMet: >50 mg/kg
[6]
  TD50 TOX: >1000 mg/kg
[7]
  ED50 MES: 28.1 mg/kg
